Experimental data: patent US12467927B2, “Fluorescence resonance energy transfer (FRET) nanoprobe and preparation method and use thereof” (QILU UNIVERSITY OF TECHNOLOGY, priority 2022, dated 2025)

Experiment: Zeta potential determination
Type: physicochemical
Procedure: Size and Zeta potential determinations were conducted on a Zetasizer Nano ZS (ZEN 3600, Malvern Instruments Ltd.). Transmission electron microscopy (TEM) images were determined by a transmission electron microscope (JEM-2100, JEOL). The fluorescence was measured by an F-4600 Fluorescence Spectrophotometer (Japan); the confocal fluorescence images of cells were obtained by a Nikon laser confocal microscope (Nikon, Japan).
The synthesized HMSN were characterized by TEM and dynamic light scattering (DLS). […] Meanwhile, the particle size distribution measured by DLS was mainly around 140 nm (FIG. 2). The experimental data was matched up with each other. […] The particle size of PAMAM (G=1.5) dendrimer was characterized by TEM. […] The particle size distribution measured by DLS was around 8 nm (FIG. 5). […] Meanwhile, to prevent the early leakage of DOX, the DOX was encapsulated by the RVRR peptide and PAMAM/TPE. To verify the successful encapsulation of HMSN/DOX, TEM characterization was conducted. […] Characterized by DLS and Zeta potential, the particle size distribution of the transparent thin layer structure was around 160 nm (FIG. 7), and a Zeta potential was 3.25 mV (FIG. 8).

Row | zeta potential | SMILES
1 | 24.3 mV | COc1cccc2c1C(=O)c1c(O)c3c(c(O)c1C2=O)C[C@@](O)(C(=O)CO)C[C@@H]3O[C@H]1C[C@H](N)[C@H](O)[C@H](C)O1 [DOX, doxorubicin]
2 | −8.6 mV | O=C(O)c1ccc(C(=C(c2ccccc2)c2ccccc2)c2ccccc2)cc1 [TPE-COOH, 1-(4-carboxyphenyl)-1,2,2-triphenylethylene]
